# Assays:
# [1] = target: T1, human 5-HT1A -serotoninergic receptor (Homo sapiens, UniProt P08908); experiment: Radioreceptor binding to recombinant 5-HT1A receptors ([3H]8-OH-DPAT, HeLa cell membranes); settings: [3H]8-OH-DPAT 0.2-1 nM, 30 min at 30° C., read-out: Binding affinity for the 5-HT1A receptor, Ki
# T1 construct: expressed in transfected cells; host or cells: HeLa (human cell line), stably transfected; cell membranes
# T1 sequence (P08908 1-422): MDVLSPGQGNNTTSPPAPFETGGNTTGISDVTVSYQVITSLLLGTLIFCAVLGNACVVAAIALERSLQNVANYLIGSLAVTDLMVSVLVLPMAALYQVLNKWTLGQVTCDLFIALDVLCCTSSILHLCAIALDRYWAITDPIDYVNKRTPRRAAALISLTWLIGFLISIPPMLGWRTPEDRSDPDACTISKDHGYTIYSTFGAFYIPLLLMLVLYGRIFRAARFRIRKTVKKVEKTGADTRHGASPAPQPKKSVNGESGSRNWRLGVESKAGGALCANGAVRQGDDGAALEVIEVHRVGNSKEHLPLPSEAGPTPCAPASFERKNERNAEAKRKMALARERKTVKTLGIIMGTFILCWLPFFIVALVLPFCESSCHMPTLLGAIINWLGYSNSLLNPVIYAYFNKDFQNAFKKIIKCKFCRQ
# Experimental: HeLa cells were grown as monolayers in Dulbecco's modified Eagle's medium (DMEM), supplemented with 10% fetal calf serum and gentamicin ([…]), 5% CO2 at 37° C. Cells were detached from the growth flash at 95% confluence by a cell scraper and were lysed in ice-cold 5 mM Tris and 5 mM EDTA buffer (pH 7.4). Homogenates were centrifuged at 40000×g×20 min and pellets were resuspended in a small volume of ice-cold 5 mM Tris 5 and 5 mM EDTA buffer (pH 7.4) and immediately frozen and stored at -70° C. until use. On the day of experiment, cell membranes were resuspended in binding buffer: 50 mM Tris HCl (pH 7.4), 2.5 mM MgCl2, […] (Fargin et al., Nature 335, 358-360, 1988). Membranes were incubated in a final volume of 1 ml for 30 min at 30° C. with 0.2-1 nM [^3 H]8-OH-DPAT, in absence or presence of competing drugs; non-specific binding was determined in the presence of […]. The incubation was stopped by addition of ice-cold Tris-HCl buffer and rapid filtration through 0.2% polyethyleneimine pretreated Whatman GF/B or Schleicher & Schuell GF52 filters.
# [2] = test system: rhythmic bladder voiding contractions; experiment: Effects on volume-induced rhythmic bladder voiding contractions in anaesthetized rats; assay type: in vivo, Female Sprague Dawley rats; settings: for Bladder Quiescence (disappearance time of contractions): mean ± S.E.
# Experimental: The animals were housed with free access to food and water and were maintained on a forced 12 h alternating light-dark cycle at 22-24° C. for at least one week, except during the experiment. […] The catheter was tied in place with a ligature around the external urethral orifice and was connected with conventional pressure transducers (Statham P23 ID/P23 XL). […] The bladder was then filled via the recording catheter by incremental volumes of warm (37° C.) saline until reflex bladder voiding contractions occurred (usually 0.8-1.5 ml).
# After cessation of the effect of drug injection, the height of the peaks was compared with that previously recorded after the intravenous administration of vehicle alone.
# [3] = test system: rhythmic bladder voiding contractions; settings: urethane-anesthetized rats; background statement; cited from earlier work
# [4] = i.v., urethane-anesthetized rats
Structure (SMILES),Ki [1],Bladder Quiescence (disappearance time of contractions) ([2]; 100 μg/kg i.v.),Bladder Quiescence (disappearance time of contractions) ([2]; 1000 μg/kg i.v.),Bladder Quiescence (disappearance time of contractions) ([2]; 3000 μg/kg i.v.),further results
"COc1cc(N)ccc1N1CCN(CCN(C(=O)C2CCCCC2)c2ccccn2)CC1 [Ex. 6, 1-[N-cyclohexylcarbonyl-N-(2-pyridyl)-2-aminoethyl]-4-(4-amino-2-methoxyphenyl)piperazine]",14.3 nM,9.82 ± 1.18 min,15.00 ± 3.11 min,–,Bladder Quiescence (disappearance time of contractions) ([2]; 10 μg/kg i.v.): 6.75 ± 1.66 min
"CCN(CC)CC#CCOC(=O)C(O)(c1ccccc1)C1CCCCC1 (centres unmarked) [Oxybutynin, reference compound]",–,0.92 ± 0.15 min,2.80 ± 0.60 min,6.27 ± 2.90 min,"Effect on bladder voiding contractions in this model system (background, in words) [3]: lower the amplitude of the bladder contractions; Bladder Quiescence (disappearance time of contractions) ([2]; 300 μg/kg i.v.): 2.87 ± 1.12 min; ED50 ([2]; Rattus norvegicus, iv, read-out: ED50 value (extrapolated dose inducing a 30% reduction of amplitude of the contractions in 50% of treated rats)): 240 mg/kg; Duration of bladder quiescence / cessation of bladder contractions (in words) [2, 4]: does not cause cessation of bladder contractions; Effect on amplitude of bladder contractions (in words) [2, 4]: only decreased the amplitude of the contractions in a dose-related manner"
"COc1cc(NS(C)(=O)=O)ccc1N1CCN(CCN(C(=O)C2CCCCC2)c2ccccn2)CC1 [Ex. 8, 1-[N-cyclohexylcarbonyl-N-(2-pyridyl)-2-aminoethyl]-4-(4-methanesulfonylamino-2-methoxyphenyl)piperazine]",–,2.03 ± 0.44 min,7.20 ± 1.07 min,14.20 ± 2.57 min,–
"Cc1c(-c2ccccc2)oc2c(C(=O)OCCN3CCCCC3)cccc2c1=O [Flavoxate, reference compound]",–,–,3.04 ± 0.96 min,5.30 ± 1.00 min,Bladder Quiescence (disappearance time of contractions) ([2]; 10000 μg/kg i.v.): 8.25 ± 1.90 min

# The remaining molecules from weak to strong by Ki [1], led by results:
Ki [1],Structure (SMILES),Bladder Quiescence (disappearance time of contractions) ([2]; 100 μg/kg i.v.),Bladder Quiescence (disappearance time of contractions) ([2]; 1000 μg/kg i.v.),Bladder Quiescence (disappearance time of contractions) ([2]; 3000 μg/kg i.v.),further results
8.15 nM,"COc1cc(NC(C)=O)ccc1N1CCN(CCN(C(=O)C2CCCCC2)c2ccccn2)CC1 [Ex. 7, 1-[N-cyclohexylcarbonyl-N-(2-pyridyl)-2-aminoethyl]-4-(4-acetylamino-2-methoxyphenyl)piperazine]",7.97 ± 1.78 min,20.63 ± 3.31 min,–,Bladder Quiescence (disappearance time of contractions) ([2]; 300 μg/kg i.v.): 8.65 ± 1.81 min
1.51 nM,"O=C(C1CCCCC1)N(CCN1CCN(c2cc(Cl)ccc2OCC(F)(F)F)CC1)c1ccccn1 [Ex. 3, 1-[N-cyclohexylcarbonyl-N-(2-pyridyl)-2-aminoethyl]-4-[5-chloro-2-(2,2,2-trifluoroethoxy)phenyl]piperazine]",6.15 ± 1.19 min,10.13 ± 0.59 min,14.42 ± 2.36 min,Bladder Quiescence (disappearance time of contractions) ([2]; 10 μg/kg i.v.): 3.15 ± 1.74 min
0.89 nM,"O=C(C1CCCCC1)N(CCN1CCN(c2ccccc2OCC(F)(F)F)CC1)c1ccccn1 [Ex. 2, 1-[N-cyclohexylcarbonyl-N-(2-pyridyl)-2-aminoethyl]-4-[2-(2,2,2-trifluoroethoxy)phenyl]piperazine]",8.70 ± 2.88 min,27.28 ± 8.70 min,–,Bladder Quiescence (disappearance time of contractions) ([2]; 30 μg/kg i.v.): 3.00 ± 0.91 min
0.86 nM,"O=C(C1CCCCC1)N(CCN1CCN(c2ccccc2OC(F)(F)F)CC1)c1ccccn1 [Ex. 1, 1-[N-cyclohexylcarbonyl-N-(2-pyridyl)-2-aminoethyl]-4-(2-trifluoromethoxyphenyl)piperazine]",5.85 ± 1.87 min,16.25 ± 1.38 min,18.40 ± 4.12 min,–
0.45 nM,"O=C(C1CCCCC1)N(CCN1CCN(c2cc(Cl)ccc2Cl)CC1)c1ccccn1 [Ex. 10, 1-[N-cyclohexylcarbonyl-N-(2-pyridyl)-2-aminoethyl]-4-(2,5-dichlorophenyl)piperazine]",–,–,–,–
0.31 nM,"N#Cc1ccccc1N1CCN(CCN(C(=O)C2CCCCC2)c2ccccn2)CC1 [Ex. 4, 1-[N-cyclohexylcarbonyl-N-(2-pyridyl)-2-aminoethyl]-4-(2-cyanophenyl) piperazine]",–,–,–,–
0.12 nM,"O=C(C1CCCCC1)N(CCN1CCN(Cc2cc(Cl)ccc2Cl)CC1)c1ccccn1 [Ex. 14, 1-[N-cyclohexylcarbonyl-N-(2-pyridyl)-2-aminoethyl]-4-(2,5-dichlorobenzyl)piperazine]",10.12 ± 1.98 min,–,–,Bladder Quiescence (disappearance time of contractions) ([2]; 30 μg/kg i.v.): 2.80 ± 1.31 min; Bladder Quiescence (disappearance time of contractions) ([2]; 300 μg/kg i.v.): 21.52 ± 4.66 min

# — patent US6271234A, “1,4-disubstituted piperazines” (Recordati S.A., Chemical and Pharmaceutical Company, priority 1997, dated 2001)
